{"source": "patent US20100144853A1", "about": "“NOVEL COMBINED ADMINISTRATION” (priority 2008, published 2010)", "format_in_all_cases": "in vitro ADME", "key": {"Lipase from Hog Pancreas": {"tested_on": "Lipase from Hog Pancreas", "assay": "Stability of COMPOUND A with Lipase, Procedure C (premix of COMPOUND A and Lipase, then COMPOUND B)", "details": "0.55 mg/mL Lipase", "experimental": "Procedure C (Premix of COMPOUND A and Lipase, Followed by Addition of COMPOUND B): Remark: Final COMPOUND B concentration: 3 μg/ml 220 μL of drug solution (stock A) and 220 μL of FeSSIF concentrate (Lecithin 37.5 mM and Sodium taurocholate 150 mM) were mixed. At time zero the reaction was started by addition of 1700 μl of Lipase in phosphate buffered saline solution (from stock C to obtain a final enzyme concentration of 0.55 mg/mL). The mixture was incubated at 37° C. and after 5 min, a 200 μL sample was taken for HPLC analysis. Then 60 μL of COMPOUND B solution (stock B) previously diluted 1:10 in phosphate buffered saline solution (corresponds to 100 μg/mL COMPOUND B) was added and as a function of time, samples of 200 μL were taken, diluted immediately with 600 μL of isopropanol and centrifuged for 5 min at 3000 rpm. The supernatant was analyzed by HPLC. 1700 μl of Lipase in phosphate buffered saline solution (from stock C to obtain a final enzyme concentration of 0.55 mg/mL) were mixed with 220 μL of FeSSIF concentrate and at time zero 220 μL of drug solution (stock A) was added. After 7 min of incubation, a 200 μL sample was taken, 60 μL of diluted COMPOUND B solution (stock B) was added and continued as described for the 1st experiment."}, "[1]": {"assay": "Stability of COMPOUND A in human intestinal fluids, Procedure F (suspension, no separation of excess), first table", "details": "fasted HIF", "experimental": "Fasted Intestinal Fluids: the fluids from 4 different subjects were collected with a naso-jejunal tube after fasting overnight and pooled.\n(§1) Procedure F (COMPOUND A and COMPOUND B in suspension, the degradation immediately stopped without separation of excess compound): Stock K=COMPOUND B suspension (0.5 mg/mL)\n(§2) Dilute 1 part of COMPOUND B suspension (stock J) with 3 parts of FeSSIF pH6.5 solution.\n(§3) 500 μL of freshly thawed intestinal fluids (fasted and stimulated state) were added to 1.2 mg of COMPOUND A in a 1 mL glass vial. The suspended compound was stirred for 15 min at 37° C. to obtain wetting and a homogenous suspension. In parallel, 4 glass vials were prepared with 20 μL of a COMPOUND B suspension at different concentrations. These concentrations were obtained by mixing FeSSIF pH6.5 and COMPOUND B suspension (stock K) in different ratios, respectively 1:[…], 1:1, 0:1 to obtain 0, 1, 2 and 4% related to COMPOUND A. At time zero, 100 μL of COMPOUND A suspension preincubated at 37° C. were added to the 20 μL COMPOUND B suspension. The mixture was incubated at 37° C. with gentle stirring. After 15 min and 60 min, the reaction was stopped by mixing a 50 μL sample with 150 μL isopropanol and centrifuged at 5′000 rpm during 5 min. The clear supernatant was analyzed for the hydrolysis product and its oxidized form by HPLC."}, "[2]": {"assay": "Stability of COMPOUND A in human intestinal fluids, Procedure F (suspension, no separation of excess), second table", "details": "fasted HIF", "experimental": "Stimulated Intestinal Fluids: the fluids from 3 different subjects were collected after fasting overnight with a nasojejunal tube and pooled. For the stimulation, twenty minutes before the beginning of the collection, volunteers were provided with chewing-gums and were asked to chew over a 15 minutes period, maintaining the taste by replacing the sticks of gum approximately every 2 minutes.\nas §1, §2, §3"}, "[3]": {"details": "COMPOUND B 0 μg/mL (0%), T = 15 min"}, "[4]": {"details": "COMPOUND B 0 μg/mL (0%), T = 60 min"}, "[5]": {"details": "COMPOUND B 20 μg/mL (1%), T = 15 min"}, "[6]": {"details": "COMPOUND B 20 μg/mL (1%), T = 60 min"}, "[7]": {"details": "COMPOUND B 40 μg/mL (2%), T = 15 min"}, "[8]": {"details": "COMPOUND B 40 μg/mL (2%), T = 60 min"}, "[9]": {"details": "COMPOUND B 80 μg/mL (4%), T = 15 min"}, "[10]": {"details": "COMPOUND B 80 μg/mL (4%), T = 60 min"}}}
{"molecule": "CCC(CC)CC1(C(=O)Nc2ccccc2SC(=O)C(C)C)CCCCC1", "note": "[COMPOUND A, thioisobutyric acid S-(2-{[1-(2-ethyl-butyl)-cyclohexanecarbonyl]-amino}-phenyl)ester]", "values": [{"measurement": "Concentration of COMPOUND A", "setting": "Lipase from Hog Pancreas; +3 μg/mL COMPOUND B at T = 5 min, time 0 min", "result": 45.3, "unit": "µg/mL"}, {"measurement": "Concentration of COMPOUND A", "setting": "Lipase from Hog Pancreas; +3 μg/mL COMPOUND B at T = 5 min, time 5 min", "result": 41.5, "unit": "µg/mL"}, {"measurement": "Concentration of COMPOUND A", "setting": "Lipase from Hog Pancreas; +3 μg/mL COMPOUND B at T = 5 min, time 10 min", "result": 39.1, "unit": "µg/mL"}, {"measurement": "Concentration of COMPOUND A", "setting": "Lipase from Hog Pancreas; +3 μg/mL COMPOUND B at T = 5 min, time 15 min", "result": 39.3, "unit": "µg/mL"}, {"measurement": "Concentration of COMPOUND A", "setting": "Lipase from Hog Pancreas; +3 μg/mL COMPOUND B at T = 5 min, time 20 min", "result": 39.1, "unit": "µg/mL"}, {"measurement": "Concentration of COMPOUND A", "setting": "Lipase from Hog Pancreas; +3 μg/mL COMPOUND B at T = 5 min, time 25 min", "result": 39.3, "unit": "µg/mL"}, {"measurement": "Concentration of COMPOUND A", "setting": "Lipase from Hog Pancreas; +3 μg/mL COMPOUND B at T = 5 min, time 30 min", "result": 39.3, "unit": "µg/mL"}, {"measurement": "Concentration of COMPOUND A", "setting": "Lipase from Hog Pancreas; +3 μg/mL COMPOUND B at T = 7 min, time 0 min", "result": 45.3, "unit": "µg/mL"}, {"measurement": "Concentration of COMPOUND A", "setting": "Lipase from Hog Pancreas; +3 μg/mL COMPOUND B at T = 7 min, time 5 min", "result": 40.4, "unit": "µg/mL"}, {"measurement": "Concentration of COMPOUND A", "setting": "Lipase from Hog Pancreas; +3 μg/mL COMPOUND B at T = 7 min, time 10 min", "result": 38.4, "unit": "µg/mL"}, {"measurement": "Concentration of COMPOUND A", "setting": "Lipase from Hog Pancreas; +3 μg/mL COMPOUND B at T = 7 min, time 15 min", "result": 38.2, "unit": "µg/mL"}, {"measurement": "Concentration of COMPOUND A", "setting": "Lipase from Hog Pancreas; +3 μg/mL COMPOUND B at T = 7 min, time 20 min", "result": 37.9, "unit": "µg/mL"}, {"measurement": "Concentration of COMPOUND A", "setting": "Lipase from Hog Pancreas; +3 μg/mL COMPOUND B at T = 7 min, time 25 min", "result": 37.8, "unit": "µg/mL"}, {"measurement": "Concentration of COMPOUND A", "setting": "Lipase from Hog Pancreas; +3 μg/mL COMPOUND B at T = 7 min, time 30 min", "result": 37.9, "unit": "µg/mL"}, {"measurement": "Concentration of COMPOUND A", "setting": "[1]; [3]", "result": 1111.92, "unit": "µg/mL"}, {"measurement": "Concentration of COMPOUND A", "setting": "[1]; [4]", "result": 182.50, "unit": "µg/mL"}, {"measurement": "Concentration of COMPOUND A", "setting": "[1]; [5]", "result": 1299.01, "unit": "µg/mL"}, {"measurement": "Concentration of COMPOUND A", "setting": "[1]; [6]", "result": 718.26, "unit": "µg/mL"}, {"measurement": "Concentration of COMPOUND A", "setting": "[1]; [7]", "result": 1381.23, "unit": "µg/mL"}, {"measurement": "Concentration of COMPOUND A", "setting": "[1]; [8]", "result": 598.81, "unit": "µg/mL"}, {"measurement": "Concentration of COMPOUND A", "setting": "[1]; [9]", "result": 1728.95, "unit": "µg/mL"}, {"measurement": "Concentration of COMPOUND A", "setting": "[1]; [10]", "result": 826.93, "unit": "µg/mL"}, {"measurement": "Concentration of COMPOUND A", "setting": "[2]; [3]", "result": 1569.58, "unit": "µg/mL"}, {"measurement": "Concentration of COMPOUND A", "setting": "[2]; [4]", "result": 400.63, "unit": "µg/mL"}, {"measurement": "Concentration of COMPOUND A", "setting": "[2]; [5]", "result": 2034.38, "unit": "µg/mL"}, {"measurement": "Concentration of COMPOUND A", "setting": "[2]; [6]", "result": 1503.21, "unit": "µg/mL"}, {"measurement": "Concentration of COMPOUND A", "setting": "[2]; [7]", "result": 2163.01, "unit": "µg/mL"}, {"measurement": "Concentration of COMPOUND A", "setting": "[2]; [8]", "result": 1515.41, "unit": "µg/mL"}, {"measurement": "Concentration of COMPOUND A", "setting": "[2]; [9]", "result": 1945.50, "unit": "µg/mL"}, {"measurement": "Concentration of COMPOUND A", "setting": "[2]; [10]", "result": 1449.03, "unit": "µg/mL"}]}
